The record followed here is publication PMC4760274, “Elongation factor 2 kinase promotes cell survival by inhibiting protein synthesis without inducing autophagy” (Cellular Signalling, 2016).

The subject of one assay is P-eEF2 in TSC2−/− MEFs. Nature of the assay: eEF2 phosphorylation in TSC2−/− MEFs (western blot). Format: cell-based, mouse. As to conditions: TSC2−/− cells starved of glucose; rapamycin 20 nM; Fig. 4A. On the procedure: After treatment, cells were lysed in ice-cold lysis buffer containing 1% (v/v) Triton X-100 (215680010, Acros Organics), 50 mM Tris (T6066-1KG, Sigma-Aldrich)–HCl (258148-2.5 L, Sigma-Aldrich) pH 7.4, 50 mM NaCl (BP358-212, Fisher Scientific), 0.2 mM EDTA (BP120-500, Fisher Scientific), 0.2 mM EGTA (E1102, Melford), 50 mM β-glycerophosphate (G9422, Sigma-Aldrich), 1 mM Na3VO4 (S6508, Sigma-Aldrich), 15 mM β-mercaptoethanol (125472500, Acros Organics) and 1 × protease inhibitor cocktail (5056489001, Roche). Lysates were spun at 16,000 × g for 10 min at 4 °C; the supernatants were kept and total protein concentration was quantified by Bradford assay following the manufacturer's instructions. […]
Fig. 4 eEF2K aids the survival of TSC2^−/− cells under glucose-starved conditions. […] Cells were then lysed and samples containing equal amounts of protein were analysed by western blot using the indicated antibodies. Values given below each lane show quantitation of the signal for LC3II, corrected for the actin signal or P-eEF2, corrected for the eEF2 signal from multiple experiments as in (A), mean ± SEM (control cells without treatment = 1; n = 3). […] The − signs of the Glucose row are barely visible, so the condition given for each lane is my best reading. / Panel A: which number belongs to which lane or group (Con, JAN-613, JAN-384) is judged from horizontal position only. […]

Another assay relates to P-eEF2 in A549 cells. Nature of the assay: eEF2 phosphorylation in A549 cells (western blot). As to conditions: 16 h, AZD8055 1 μM. It counts as cell-based, human. On the procedure:
(§1) After treatment, cells were lysed in ice-cold lysis buffer containing 1% (v/v) Triton X-100 (215680010, Acros Organics), 50 mM Tris (T6066-1KG, Sigma-Aldrich)–HCl (258148-2.5 L, Sigma-Aldrich) pH 7.4, 50 mM NaCl (BP358-212, Fisher Scientific), 0.2 mM EDTA (BP120-500, Fisher Scientific), 0.2 mM EGTA (E1102, Melford), 50 mM β-glycerophosphate (G9422, Sigma-Aldrich), 1 mM Na3VO4 (S6508, Sigma-Aldrich), 15 mM β-mercaptoethanol (125472500, Acros Organics) and 1 × protease inhibitor cocktail (5056489001, Roche). Lysates were spun at 16,000 × g for 10 min at 4 °C; the supernatants were kept and total protein concentration was quantified by Bradford assay following the manufacturer's instructions.
(§2) These procedures were performed as described previously.
Cells were then treated with 10 mM 2-deoxyglucose (2DG), rapamycin (100 nM), AZD8055 (1 μM) or MG132 (10 μM) for 16 h. Cells were then lysed and samples containing equal amounts of protein were analysed by western blot using the indicated antibodies. Values given below each lane show quantitation of the signal for LC3II, corrected for the actin signal from multiple experiments as in (A) expressed as LC3II normalized to actin, mean ± SEM (control cells without treatment = 1; n = 3). (B) A549 cells were cultured as in (A) to induce eEF2K knockdown. A549 cells were transiently transfected with the GST-BHMT construct and maintained in full media in the presence or absence of AZD8055 (1 μM) for 16 h, in the presence of leupeptin and E64d. GST-BHMT was precipitated with glutathione agarose from the whole cell extracts (bottom panel). Values given below show the quantitation of data from multiple experiments as in (B) expressed as the level of BHMT fragment normalized to the control without IPTG, mean ± SEM (control cells without treatment = 1; n = 3). Values given below each lane show quantitation of the signal for P-eEF2, corrected for the eEF2 signal from multiple experiments as in (B) expressed as P-eEF2 normalized to eEF2, mean ± SEM (control cells without treatment = 1; n = 3). (C) Cells were treated as described in Supplemental Fig. S3, visualized by confocal microscopy and the rate of autophagosome–lysosome fusion was measured according to green/red fluorescence ratio which reflect the percentage of unfused LC3. Scale bar = 20 μm. (D) Data quantification of C, data are presented as means ± SEM. (n = 5) ***P < 0.001, obtained by two-way ANOVA (Dunnett's test). (E) Untransfected A549 cells were treated with AZD8055 and BafA1 as described in A, cell lysates were collected at T0, 1 and 3 h for immunoblotting analysis. Values given below each lane show quantitation of the signal for LC3II, corrected for the LC3I signal from multiple experiments as in (E) expressed as LC3II normalized to LC3I, mean ± SEM (control cells without treatment = 1; n = 3).
For orientation: Immunoblotting shows a protein as a band on a membrane.

A further assay concerns TSC2−/− MEFs. Nature of the assay: caspase 3/7 assay in TSC2−/− MEFs. Format: cell-based, mouse. As to conditions: TSC2−/− cells; rapamycin 20 nM; 48 h; Fig. 4B. As for the experimental part:
Caspase 3/7 assays (G8090, Promega) were performed according to the manufacturer's instructions. Briefly, 10,000 cells/well were plated overnight in a 96-well plate. Cells were treated as described in the figure legends for the indicated time period. To measure caspase 3/7 activity, 50 μL of caspase Glo 3/7 reagent was added to each well for 2 h with constant shaking at room temperature. Luminescence was measured using a BMG Labtech FLUOstar Optimi plate reader. Cytotoxicity was evaluated by CellTox Green® cytotoxicity assay (Promega). Briefly, 10,000 cells/well were plated overnight in a 96-well plate. Cells were treated as described in the figure legends for the indicated time period. Fluorescence was measured at 485–500 nmEx/520–530 nmEm using a BMG Labtech FLUOstar Optimi plate reader.
Fig. 4 eEF2K aids the survival of TSC2^−/− cells under glucose-starved conditions. […] Cells were then lysed and samples containing equal amounts of protein were analysed by western blot using the indicated antibodies. Values given below each lane show quantitation of the signal for LC3II, corrected for the actin signal or P-eEF2, corrected for the eEF2 signal from multiple experiments as in (A), mean ± SEM (control cells without treatment = 1; n = 3). (B) Cells were treated for 48 h as described in (A), except that they were processed for caspase 3/7 assay. […]

Assay [1] concerns GST-BHMT cleavage (autophagic flux) in A549 cells. Nature of the assay: GST-BHMT cleavage assay in A549 cells. As to conditions: AZD8055 1 μM, 16 h, Fig. 2B. Format: cell-based, human.
Description: Cells were lysed as above. […] The precipitated GST-BHMT was washed three times in the ice cold lysis buffer. Precipitates were then boiled in SDS-PAGE sample buffer, resolved by SDS-PAGE and analysed by western blotting using anti-GST antibody.
Cells were then treated with 10 mM 2-deoxyglucose (2DG), rapamycin (100 nM), AZD8055 (1 μM) or MG132 (10 μM) for 16 h. Cells were then lysed and samples containing equal amounts of protein were analysed by western blot using the indicated antibodies. […] (B) A549 cells were cultured as in (A) to induce eEF2K knockdown. A549 cells were transiently transfected with the GST-BHMT construct and maintained in full media in the presence or absence of AZD8055 (1 μM) for 16 h, in the presence of leupeptin and E64d. GST-BHMT was precipitated with glutathione agarose from the whole cell extracts (bottom panel). […] (E) Untransfected A549 cells were treated with AZD8055 and BafA1 as described in A, cell lysates were collected at T0, 1 and 3 h for immunoblotting analysis.
The next assay concerns LC3II in A549 cells. Nature of the assay: LC3 modification in A549 cells (western blot). It counts as cell-based, human. As to conditions: untransfected A549; AZD8055 1 μM; Fig. 2E. On the procedure:
as §1, §2
Cells were then treated with 10 mM 2-deoxyglucose (2DG), rapamycin (100 nM), AZD8055 (1 μM) or MG132 (10 μM) for 16 h. Cells were then lysed and samples containing equal amounts of protein were analysed by western blot using the indicated antibodies. Values given below each lane show quantitation of the signal for LC3II, corrected for the actin signal from multiple experiments as in (A) expressed as LC3II normalized to actin, mean ± SEM (control cells without treatment = 1; n = 3). (B) A549 cells were cultured as in (A) to induce eEF2K knockdown. […] (D) Data quantification of C, data are presented as means ± SEM. […]

For assay [2], the system named is autolysosome formation in A549 cells. Nature of the assay: autophagic flux analysis with mCherry-EGFP-LC3B in A549 cells. It counts as cell-based, human. As to conditions: AZD8055 1 μM, after release from BafA1, Fig. 2C, D. On the procedure: A549 cells were transfected with a vector encoding mCherry-EGFP-LC3B, a tandem fluorescent-tagged LC3 (a kind gift from Dr. Terje Johansen, Biochemistry Department, Institute of Medical Biology, University of Tromsø, Norway), using lipofectamine 3000 (L3000001, Life technologies) following manufacturer's instructions. After treatment cells were washed twice in phosphate buffered saline (PBS, 18912-014, Gibco) and then fixed in 4% formaldehyde (F8775, Sigma-Aldrich) for 15 min. Fixed cells were washed thrice in PBS and permeabilized with 0.1% Triton-X 100 for 5 min. Cells were then again washed thrice in PBS and mounted in ProLong® Gold Antifade Mountant (P36935, Life technologies). Cells were visualized using Leica TCS SP8X/MP microscope equipped with a tuneable white light laser using a 40 × oil immersion objective lens (NA = 1.30) numerical aperture objective. Green/red fluorescence ratio (GFP loss upon autolysosome formation) was measured using the Leica Application Suite X (LAS X) software (version 1.1.0).
We also examined the progression of autolysosome formation using a tandem fluorescently-tagged LC3 (mCherry-EGFP-LC3B) which allowed us to determine autophagosome and lysosome fusion by evaluating loss of GFP fluorescence. Green (GFP) but not red (mCherry) fluorescence is quenched by protonation in response to acidified intra-lysosomal pH upon autolysosome fusion. […]

[3] abbreviates: 2DG 10 mM, rapamycin 100 nM, MG132 10 μM, Fig. 2A.

Turning to `CO[C@H]1C[C@@H]2CC[C@@H](C)[C@@](O)(O2)C(=O)C(=O)N2CCCC[C@H]2C(=O)O[C@H]([C@H](C)C[C@@H]2CC[C@@H](O)[C@H](OC)C2)CC(=O)[C@H](C)/C=C(\C)[C@@H](O)[C@@H](OC)C(=O)[C@H](C)C[C@H](C)/C=C/C=C/C=C/1C` [rapamycin], the eEF2 phosphorylation entry in the assay with P-eEF2 in TSC2−/− MEFs is recorded as “large increase”. The “phosphorylation of eEF2” value with P-eEF2 in A549 cells (setting [3]) was “induced the phosphorylation of eEF2”. In the assay on TSC2−/− MEFs, the “adverse effect of glucose starvation (caspase 3/7 activity) countered” value is “fully” and the “caspase activity in control conditions” value is reported as “decreased”.

With `COc1ccc(-c2ccc3c(N4CCOC[C@@H]4C)nc(N4CCOC[C@@H]4C)nc3n2)cc1CO` [AZD8055], in assay [1], the “cleavage of GST-BHMT” value is reported as “marked increase”. For the same compound, in the assay with LC3II in A549 cells, the LC3II/I ratio entry is reported as “further increase”. Moreover, the “phosphorylation of eEF2” value is reported as “induced the phosphorylation of eEF2” with P-eEF2 in A549 cells (setting [3]) and “marked increase” with P-eEF2 in A549 cells (Fig. 2B). The “green/red ratio (mCherry-EGFP-LC3B) in comparison to control cells” value in assay [2] was “remained low”.
